Laboratory results published in paper PMC10501326, “A Phase I Study of the Pan-Notch Inhibitor CB-103 for Patients with Advanced Adenoid Cystic Carcinoma and Other Tumors” (Cancer Research Communications, 2023).
Where two headings read alike, the source gives them in different places.

Test: Plasma pharmacokinetics (LC/MS-MS)
Assay type: in vivo, human
Conditions: human, plasma, oral; for AUC: read-out: Mean AUC24; for Cmax: read-out: Mean Cmax
Procedure: Plasma pharmacokinetics were assessed for CB-103 via blood samples taken on days 1 (predose, 0.5, 1, 2, 4, 6, 8 hours postdose ± 5 minutes, and 12 hours postdose ± 15 minutes), 2 (24-hour post-day 1, predose), 3 (predose), 8 (predose, 0.5, 1, 2, 4, 6, and 8 hour postdose ± 5 minutes), 9 (24-hour post-day 8, predose), 15, and 22 (predose, and 1 hour postdose) in cycle 1. In cycle 2, on day 1 (predose, 0.5, 1, 2, 6, and, 8 hours postdose ± 5 minutes) and 15 (predose); in cycles 3–6 once at each visit (predose or postdose). For a twice daily dose schedule, pharmacokinetic timepoints were adjusted to evaluate concentration-versus-time curves after morning and evening doses on days 1 and 8.
CB-103 concentrations were determined by validated high-performance LC/MS-MS method and analyzed descriptively using Phoenix WinNonlin v6.3 (Pharsight Corporation). Data at timepoints collected were used to generate a population pharmacokinetic model to estimate AUC and Cmax to associate with safety and efficacy.

[1] = 13 mg, Cohort 1 (13 mg), Cycle 1, Day 1
[2] = 13 mg, Cohort 1 (13 mg), Cycle 1, Day 8
[3] = 26 mg, Cohort 2 (26 mg), Cycle 1, Day 1
[4] = 52 mg, Cohort 3 (52 mg), Cycle 1, Day 1
[5] = 52 mg, Cohort 3 (52 mg), Cycle 1, Day 8
[6] = 104 mg, Cohort 4 (104 mg), Cycle 1, Day 1
[7] = 104 mg, Cohort 4 (104 mg), Cycle 1, Day 8
[8] = 148 mg, Cohort 5 (148 mg), Cycle 1, Day 1
[9] = 148 mg, Cohort 5 (148 mg), Cycle 1, Day 8
[10] = 217 mg, Cohort 6 (217 mg), Cycle 1, Day 1
[11] = 217 mg, Cohort 6 (217 mg), Cycle 1, Day 8
[12] = 250 mg, Cohort 9 (250 mg BID), Cycle 1, Day 1
[13] = 250 mg, Cohort 9 (250 mg BID), Cycle 1, Day 8
[14] = 300 mg, Cohort 10 (300 mg BID 5/2), Cycle 1, Day 1
[15] = 300 mg, Cohort 10 (300 mg BID 5/2), Cycle 1, Day 8
[16] = 348 mg, Cohort 7 (348 mg), Cycle 1, Day 1
[17] = 348 mg, Cohort 7 (348 mg), Cycle 1, Day 8
[18] = 400 mg, Cohort 11 (400 mg BID 5/2), Cycle 1, Day 1
[19] = 400 mg, Cohort 11 (400 mg BID 5/2), Cycle 1, Day 8

## CC(C)(C)c1ccc(Oc2ccc(N)cn2)cc1 [CB-103]
[1]
  AUC: 0.174 µg·h/mL
  Cmax: 0.0444 µg/mL
[2]
  AUC: 0.433 µg·h/mL
  Cmax: 0.0587 µg/mL
[3]
  AUC: 0.22 µg·h/mL
  Cmax: 0.0537 µg/mL
[4]
  AUC: 0.496 µg·h/mL
  Cmax: 0.0985 µg/mL
[5]
  AUC: 0.999 µg·h/mL
  Cmax: 0.154 µg/mL
[6]
  AUC: 1.44 µg·h/mL
  Cmax: 0.368 µg/mL
[7]
  AUC: 3.69 µg·h/mL
  Cmax: 0.418 µg/mL
[8]
  AUC: 1.26 µg·h/mL
  Cmax: 0.482 µg/mL
[9]
  AUC: 2.83 µg·h/mL
  Cmax: 0.427 µg/mL
[10]
  AUC: 2.62 µg·h/mL
  Cmax: 0.731 µg/mL
[11]
  AUC: 4.25 µg·h/mL
  Cmax: 0.912 µg/mL
[12]
  AUC: 6.14 µg·h/mL
  Cmax: 1.01 µg/mL
[13]
  AUC: 11.7 µg·h/mL
  Cmax: 1.31 µg/mL
[14]
  AUC: 10.4 µg·h/mL
  Cmax: 1.63 µg/mL
[15]
  AUC: 11.3 µg·h/mL
  Cmax: 1.39 µg/mL
[16]
  AUC: 3.52 µg·h/mL
  Cmax: 1.15 µg/mL
[17]
  AUC: 6.88 µg·h/mL
  Cmax: 0.874 µg/mL
[18]
  AUC: 14.9 µg·h/mL
  Cmax: 1.62 µg/mL
[19]
  AUC: 14.1 µg·h/mL
  Cmax: 2.4 µg/mL
500 mg, Cohort 12 (500 mg BID 5/2), Cycle 1, Day 1
  AUC: 14.2 µg·h/mL
